Test results: ChEMBL document CHEMBL4007491, “Structure-based drug design of novel ASK1 inhibitors using an integrated lead optimization strategy” (Bioorg Med Chem Lett, 2017)
In brackets after ≈: the same amount, converted by molar mass.

How the values were obtained:
[1] = Thermodynamic solubility of the compound in pH 6.8 solution; format: physicochemical; details: read-out: Therm_solubility
CYP1A2 = target: T1, CYP1A2 (Homo sapiens, UniProt P05177); assay: Inhibition of CYP1A2 (unknown origin) at 10 uM relative to control; format: ADME
T1 sequence (P05177 whole entry): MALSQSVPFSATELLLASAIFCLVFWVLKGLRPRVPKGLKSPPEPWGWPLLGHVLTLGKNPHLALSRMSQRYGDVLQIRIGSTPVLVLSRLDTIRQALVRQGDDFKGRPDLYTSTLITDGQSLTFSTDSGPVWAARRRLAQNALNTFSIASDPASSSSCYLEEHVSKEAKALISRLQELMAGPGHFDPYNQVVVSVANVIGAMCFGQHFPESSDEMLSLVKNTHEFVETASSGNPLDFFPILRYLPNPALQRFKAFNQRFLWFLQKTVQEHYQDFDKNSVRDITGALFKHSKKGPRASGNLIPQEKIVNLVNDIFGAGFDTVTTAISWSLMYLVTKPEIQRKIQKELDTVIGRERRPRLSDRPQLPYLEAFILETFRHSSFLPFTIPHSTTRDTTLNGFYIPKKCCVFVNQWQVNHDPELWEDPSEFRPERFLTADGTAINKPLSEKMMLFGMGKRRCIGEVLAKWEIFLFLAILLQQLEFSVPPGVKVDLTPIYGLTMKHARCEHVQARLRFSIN

MAP kinase p38 = MAP kinase p38 (Homo sapiens, UniProt O15264+Q15759+Q16539+P53778); assay: Inhibition of MAPK p38 (unknown origin)
[2] = target: Rho-associated protein kinase 1 (Homo sapiens, UniProt Q13464); assay: Inhibition of recombinant human GST-tagged ROCK1 catalytic domain expressed in baculovirus expression system
[3] = target: Glycogen synthase kinase-3 beta (Homo sapiens, UniProt P49841); assay: Inhibition of recombinant full length human His-tagged GSK3B expressed in baculovirus expression system
CYP3A4 = CYP3A4 (Homo sapiens, UniProt P08684); assay: Inhibition of CYP3A4 (unknown origin) at 10 uM relative to control; format: ADME
[4] = target: Proto-oncogene tyrosine-protein kinase receptor Ret (Homo sapiens, UniProt P07949); assay: Inhibition of recombinant human GST-tagged RET cytoplasmic domain expressed in baculovirus expression system
Ephrin type-A receptor 3 = target: T2, Ephrin type-A receptor 3 (Homo sapiens, UniProt P29320); assay: Inhibition of recombinant human His-tagged EPHA3 cytoplasmic domain (569 to 976 residues) expressed in baculovirus expression system
T2 sequence (P29320 whole entry): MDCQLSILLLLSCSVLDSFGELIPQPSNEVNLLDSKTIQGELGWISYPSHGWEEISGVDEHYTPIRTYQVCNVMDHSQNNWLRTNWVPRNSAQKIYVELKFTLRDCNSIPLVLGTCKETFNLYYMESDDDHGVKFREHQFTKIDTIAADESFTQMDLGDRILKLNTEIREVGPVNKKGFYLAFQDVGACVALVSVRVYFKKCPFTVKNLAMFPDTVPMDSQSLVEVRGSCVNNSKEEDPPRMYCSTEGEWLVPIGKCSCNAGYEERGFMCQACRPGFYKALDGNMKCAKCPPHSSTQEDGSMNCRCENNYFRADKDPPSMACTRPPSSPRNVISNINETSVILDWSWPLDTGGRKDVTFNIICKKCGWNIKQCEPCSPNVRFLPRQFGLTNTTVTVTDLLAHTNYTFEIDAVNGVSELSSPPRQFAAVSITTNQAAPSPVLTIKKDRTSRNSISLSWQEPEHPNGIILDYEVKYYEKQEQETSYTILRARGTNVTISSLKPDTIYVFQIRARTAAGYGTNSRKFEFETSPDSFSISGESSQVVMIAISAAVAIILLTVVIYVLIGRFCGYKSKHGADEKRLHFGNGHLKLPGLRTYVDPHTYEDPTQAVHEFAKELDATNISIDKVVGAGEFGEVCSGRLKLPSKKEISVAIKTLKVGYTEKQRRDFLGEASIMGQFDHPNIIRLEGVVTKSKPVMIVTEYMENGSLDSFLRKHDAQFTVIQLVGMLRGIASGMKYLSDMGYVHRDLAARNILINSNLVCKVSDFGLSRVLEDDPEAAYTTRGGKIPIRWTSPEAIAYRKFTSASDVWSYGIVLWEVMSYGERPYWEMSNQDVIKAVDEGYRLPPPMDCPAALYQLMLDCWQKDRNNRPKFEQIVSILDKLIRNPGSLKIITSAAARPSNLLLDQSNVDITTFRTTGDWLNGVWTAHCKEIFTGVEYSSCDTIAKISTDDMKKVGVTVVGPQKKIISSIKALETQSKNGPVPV

[5] = target: T3, Tyrosine-protein kinase Mer (Homo sapiens, UniProt Q12866); assay: Inhibition of recombinant human GST-tagged MER cytoplasmic domain expressed in baculovirus expression system
T3 sequence (Q12866 whole entry): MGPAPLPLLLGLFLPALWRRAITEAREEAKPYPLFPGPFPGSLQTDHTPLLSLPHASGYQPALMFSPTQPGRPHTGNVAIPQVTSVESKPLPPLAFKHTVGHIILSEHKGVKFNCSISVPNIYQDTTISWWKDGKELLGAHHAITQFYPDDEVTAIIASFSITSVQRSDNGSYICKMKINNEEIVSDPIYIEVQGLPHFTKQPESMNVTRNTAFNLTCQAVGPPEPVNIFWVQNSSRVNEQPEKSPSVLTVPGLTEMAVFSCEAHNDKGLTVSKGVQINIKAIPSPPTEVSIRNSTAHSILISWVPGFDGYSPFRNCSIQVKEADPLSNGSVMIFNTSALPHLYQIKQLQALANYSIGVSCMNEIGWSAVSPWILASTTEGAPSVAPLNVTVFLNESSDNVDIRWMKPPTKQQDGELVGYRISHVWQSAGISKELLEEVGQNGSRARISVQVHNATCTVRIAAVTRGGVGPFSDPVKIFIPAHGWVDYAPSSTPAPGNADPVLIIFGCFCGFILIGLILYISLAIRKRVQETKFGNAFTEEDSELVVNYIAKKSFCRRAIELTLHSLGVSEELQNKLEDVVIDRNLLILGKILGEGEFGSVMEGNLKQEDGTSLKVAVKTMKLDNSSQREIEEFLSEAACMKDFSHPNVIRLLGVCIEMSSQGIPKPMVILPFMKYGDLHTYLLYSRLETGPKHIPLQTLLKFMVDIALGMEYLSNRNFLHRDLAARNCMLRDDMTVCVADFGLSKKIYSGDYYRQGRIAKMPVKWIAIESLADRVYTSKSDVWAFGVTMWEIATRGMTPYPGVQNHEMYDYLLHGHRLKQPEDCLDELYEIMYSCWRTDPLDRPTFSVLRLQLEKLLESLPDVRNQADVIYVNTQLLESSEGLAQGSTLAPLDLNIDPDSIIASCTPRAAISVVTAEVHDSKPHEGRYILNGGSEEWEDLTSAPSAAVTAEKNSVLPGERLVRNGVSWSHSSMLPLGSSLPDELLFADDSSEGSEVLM

[6] = Intrinsic clearance in human liver microsomes; format: ADME, microsome; details: read-out: CLH
[7] = target: Epidermal growth factor receptor (Homo sapiens, UniProt P00533); assay: Inhibition of recombinant human GST-tagged EGFR cytoplasmic domain (668 to 1210 residues) expressed in baculovirus expression system
Chain of Epidermal growth factor receptor (P00533 whole entry, the tested form may be a part): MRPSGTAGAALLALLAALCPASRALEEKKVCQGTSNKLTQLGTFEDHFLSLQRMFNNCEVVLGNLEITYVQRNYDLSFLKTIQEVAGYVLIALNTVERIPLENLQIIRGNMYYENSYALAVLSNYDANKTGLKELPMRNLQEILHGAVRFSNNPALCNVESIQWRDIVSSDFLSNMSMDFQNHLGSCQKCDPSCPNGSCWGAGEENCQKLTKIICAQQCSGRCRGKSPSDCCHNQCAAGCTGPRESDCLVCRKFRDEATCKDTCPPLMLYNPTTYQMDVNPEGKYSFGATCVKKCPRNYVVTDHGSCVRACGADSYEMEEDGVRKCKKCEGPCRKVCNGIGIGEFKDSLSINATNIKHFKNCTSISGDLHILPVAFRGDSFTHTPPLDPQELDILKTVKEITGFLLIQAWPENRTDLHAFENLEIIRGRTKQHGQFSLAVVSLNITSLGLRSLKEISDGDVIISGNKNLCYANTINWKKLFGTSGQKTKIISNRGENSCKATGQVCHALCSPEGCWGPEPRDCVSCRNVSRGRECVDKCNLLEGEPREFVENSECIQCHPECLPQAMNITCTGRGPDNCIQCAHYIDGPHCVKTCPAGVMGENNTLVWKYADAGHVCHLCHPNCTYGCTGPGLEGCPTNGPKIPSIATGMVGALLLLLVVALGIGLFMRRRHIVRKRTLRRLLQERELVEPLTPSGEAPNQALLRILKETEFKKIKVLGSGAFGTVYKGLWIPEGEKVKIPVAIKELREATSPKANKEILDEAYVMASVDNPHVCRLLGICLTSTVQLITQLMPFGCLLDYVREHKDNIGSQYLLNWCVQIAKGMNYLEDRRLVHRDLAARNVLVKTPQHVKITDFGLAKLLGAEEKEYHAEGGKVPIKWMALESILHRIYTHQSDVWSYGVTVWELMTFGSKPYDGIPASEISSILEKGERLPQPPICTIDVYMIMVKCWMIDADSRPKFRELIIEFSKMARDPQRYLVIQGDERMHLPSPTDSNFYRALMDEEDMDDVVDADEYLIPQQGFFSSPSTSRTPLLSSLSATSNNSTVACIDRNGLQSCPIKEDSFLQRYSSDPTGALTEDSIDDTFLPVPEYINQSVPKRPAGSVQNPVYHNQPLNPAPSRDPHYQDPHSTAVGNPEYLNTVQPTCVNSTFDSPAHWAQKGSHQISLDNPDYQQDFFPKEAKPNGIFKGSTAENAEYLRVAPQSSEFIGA

Chain of CYP3A4 (P08684 whole entry, the tested form may be a part): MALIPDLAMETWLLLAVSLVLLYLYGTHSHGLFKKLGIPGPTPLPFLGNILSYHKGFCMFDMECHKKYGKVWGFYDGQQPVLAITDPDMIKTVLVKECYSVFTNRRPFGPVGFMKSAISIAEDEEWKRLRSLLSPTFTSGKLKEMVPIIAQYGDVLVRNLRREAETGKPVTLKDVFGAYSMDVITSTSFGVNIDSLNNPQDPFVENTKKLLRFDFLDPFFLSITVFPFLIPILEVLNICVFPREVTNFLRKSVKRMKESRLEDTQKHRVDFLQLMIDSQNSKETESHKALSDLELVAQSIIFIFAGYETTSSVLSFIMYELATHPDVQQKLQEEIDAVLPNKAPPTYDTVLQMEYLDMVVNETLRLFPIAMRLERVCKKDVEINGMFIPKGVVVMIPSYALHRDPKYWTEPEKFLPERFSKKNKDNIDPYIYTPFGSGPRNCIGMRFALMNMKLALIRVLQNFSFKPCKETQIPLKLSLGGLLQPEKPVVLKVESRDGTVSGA
Chain of Proto-oncogene tyrosine-protein kinase receptor Ret (P07949 whole entry, the tested form may be a part): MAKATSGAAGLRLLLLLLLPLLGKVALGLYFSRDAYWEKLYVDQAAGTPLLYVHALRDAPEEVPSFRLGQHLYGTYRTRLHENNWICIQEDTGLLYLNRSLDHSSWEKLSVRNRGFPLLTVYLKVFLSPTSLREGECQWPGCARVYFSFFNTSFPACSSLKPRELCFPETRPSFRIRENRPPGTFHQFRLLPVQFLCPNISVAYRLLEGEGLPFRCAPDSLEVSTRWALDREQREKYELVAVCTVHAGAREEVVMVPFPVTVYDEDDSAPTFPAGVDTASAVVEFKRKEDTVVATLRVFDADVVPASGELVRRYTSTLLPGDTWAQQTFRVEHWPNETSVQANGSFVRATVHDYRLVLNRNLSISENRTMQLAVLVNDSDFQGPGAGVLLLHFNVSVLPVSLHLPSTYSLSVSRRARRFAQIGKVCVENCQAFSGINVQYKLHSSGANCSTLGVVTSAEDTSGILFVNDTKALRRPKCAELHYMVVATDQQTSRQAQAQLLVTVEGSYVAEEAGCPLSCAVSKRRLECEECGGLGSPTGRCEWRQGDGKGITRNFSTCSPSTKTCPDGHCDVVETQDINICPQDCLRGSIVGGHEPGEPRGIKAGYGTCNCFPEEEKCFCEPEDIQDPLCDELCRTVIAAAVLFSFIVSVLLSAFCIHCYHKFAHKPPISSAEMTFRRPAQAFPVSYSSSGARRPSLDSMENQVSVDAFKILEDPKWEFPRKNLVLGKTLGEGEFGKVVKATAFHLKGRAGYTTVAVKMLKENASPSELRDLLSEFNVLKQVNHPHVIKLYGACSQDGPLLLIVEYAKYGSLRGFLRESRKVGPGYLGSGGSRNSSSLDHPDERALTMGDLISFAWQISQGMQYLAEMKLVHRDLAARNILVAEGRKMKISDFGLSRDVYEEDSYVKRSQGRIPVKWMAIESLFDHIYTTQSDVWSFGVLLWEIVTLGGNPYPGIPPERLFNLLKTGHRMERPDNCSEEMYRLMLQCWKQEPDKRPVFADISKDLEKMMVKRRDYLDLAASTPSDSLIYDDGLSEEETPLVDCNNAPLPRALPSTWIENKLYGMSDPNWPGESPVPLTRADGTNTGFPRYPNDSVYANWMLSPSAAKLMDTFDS
Chain of Glycogen synthase kinase-3 beta (P49841 whole entry): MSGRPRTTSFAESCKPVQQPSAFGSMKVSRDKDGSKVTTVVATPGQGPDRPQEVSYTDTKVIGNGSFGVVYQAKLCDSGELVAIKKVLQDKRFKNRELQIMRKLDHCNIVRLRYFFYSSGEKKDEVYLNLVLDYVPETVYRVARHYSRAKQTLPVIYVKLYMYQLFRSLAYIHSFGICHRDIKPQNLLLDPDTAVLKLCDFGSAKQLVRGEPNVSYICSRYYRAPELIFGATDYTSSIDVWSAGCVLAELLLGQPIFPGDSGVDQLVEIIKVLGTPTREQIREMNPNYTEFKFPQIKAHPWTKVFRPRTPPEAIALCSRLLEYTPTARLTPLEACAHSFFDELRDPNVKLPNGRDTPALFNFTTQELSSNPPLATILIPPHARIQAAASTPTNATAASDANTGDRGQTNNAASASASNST
Chain of Rho-associated protein kinase 1 (Q13464 whole entry, the tested form may be a part): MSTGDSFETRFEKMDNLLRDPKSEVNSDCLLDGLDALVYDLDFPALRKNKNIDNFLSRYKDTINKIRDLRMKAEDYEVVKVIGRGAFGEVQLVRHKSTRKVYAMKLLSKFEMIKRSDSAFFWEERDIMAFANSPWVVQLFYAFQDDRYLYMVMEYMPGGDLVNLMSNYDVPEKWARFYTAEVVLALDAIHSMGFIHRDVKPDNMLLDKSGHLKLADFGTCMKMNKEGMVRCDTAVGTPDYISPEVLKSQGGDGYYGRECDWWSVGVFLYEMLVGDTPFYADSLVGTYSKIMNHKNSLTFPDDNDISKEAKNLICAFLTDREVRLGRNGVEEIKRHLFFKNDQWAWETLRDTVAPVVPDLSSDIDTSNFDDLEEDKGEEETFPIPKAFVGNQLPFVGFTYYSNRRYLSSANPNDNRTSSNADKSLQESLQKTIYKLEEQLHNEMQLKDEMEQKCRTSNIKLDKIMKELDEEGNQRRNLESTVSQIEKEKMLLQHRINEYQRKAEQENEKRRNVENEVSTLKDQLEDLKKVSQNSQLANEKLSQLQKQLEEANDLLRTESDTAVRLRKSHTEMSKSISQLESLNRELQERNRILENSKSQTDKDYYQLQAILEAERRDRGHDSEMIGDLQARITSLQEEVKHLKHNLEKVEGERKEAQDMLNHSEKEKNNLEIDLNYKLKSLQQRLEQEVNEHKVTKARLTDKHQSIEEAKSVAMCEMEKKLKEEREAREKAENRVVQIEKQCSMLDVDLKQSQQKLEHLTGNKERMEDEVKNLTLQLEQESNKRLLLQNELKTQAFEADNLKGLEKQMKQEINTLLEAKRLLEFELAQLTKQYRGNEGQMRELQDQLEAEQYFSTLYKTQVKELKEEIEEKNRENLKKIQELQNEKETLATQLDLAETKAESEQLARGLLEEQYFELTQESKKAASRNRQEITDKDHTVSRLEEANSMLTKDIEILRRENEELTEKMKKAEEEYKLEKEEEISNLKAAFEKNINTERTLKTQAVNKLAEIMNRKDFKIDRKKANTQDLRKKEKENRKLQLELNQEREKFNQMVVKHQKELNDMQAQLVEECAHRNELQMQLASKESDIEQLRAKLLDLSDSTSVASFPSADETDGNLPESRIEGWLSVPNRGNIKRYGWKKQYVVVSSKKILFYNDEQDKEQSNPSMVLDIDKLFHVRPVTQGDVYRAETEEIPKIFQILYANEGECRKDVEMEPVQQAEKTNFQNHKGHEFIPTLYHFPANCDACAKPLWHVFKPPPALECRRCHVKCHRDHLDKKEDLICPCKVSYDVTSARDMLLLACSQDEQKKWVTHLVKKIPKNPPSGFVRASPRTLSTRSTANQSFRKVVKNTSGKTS

solubility thermodynamic [1]: 208 µM (≈ 75.2 µg/mL)
inhibition at 10 µM (CYP1A2): 8%
pIC50 (MAP kinase p38): < 4.7
IC50 [2]: 5.37 µM
IC50 [3]: 0.457 µM
inhibition at 10 µM (CYP3A4): 30%
IC50 [4]: 0.617 µM
IC50 (Ephrin type-A receptor 3): > 20 µM
IC50 [5]: 7.59 µM
CLint scaled [6]: 8.8 mL/min/kg
IC50 [7]: > 20 µM
SMILES: COCCn1cc(NC(=O)c2csc(-c3nncn3C(C)C)n2)cn1
